From patent publication EP3315130A1, “HYALURONIC ACID COMPOSITION INCLUDING MEPIVACAINE” (Laboratoires Vivacy, priority 2016, dated 2018)

What was measured:
[1] = test system: oedème; assay: Clinical evaluation of occurrence and severity of oedema after injection of hyaluronic acid compositions; set-up: species or system patients; settings: human, in vivo
Protocol: (§1) Deux types de composition aqueuse à base d'acide hyaluronique (concentration 20 mg/g) sont préparés.
(§2) Toutes les compositions sont issues d'un mélange monophasique tel que celui décrit dans la demande de brevet WO 2009/071697 au nom de la demanderesse, et comprennent du mannitol (concentration 35 mg/g).
(§3) Deux groupes A et B de 64 patients chacun sont formés (128 patients au total).
(§4) Le groupe B est injecté au niveau du sillon naso-génien au moyen de la composition aqueuse à base d'acide hyaluronique comprenant du mannitol et de la mépivacaïne

[2] = test system: ecchymose; assay: Clinical evaluation of occurrence and severity of ecchymosis after injection of hyaluronic acid compositions; set-up: species or system patients; settings: human, in vivo
Protocol: as §1, §2, §3, §4

Substance: mépïvacaïne
- OEdème - Aucun [1]: 63
- OEdème - Léger ou modéré [1]: 1
- OEdème - Sévère [1]: 0
- Ecchymose - Aucune [2]: 42
- Ecchymose - Légère ou modérée [2]: 22
- Ecchymose - Sévère [2]: 0
